pKd: −log10 of the molar value. Where two headings read alike, the source gives them in different places. One block for each molecule: values may come before it.
Experiments:
Type in all cases: binding
HDAC1 = HDAC1 (Homo sapiens, UniProt Q13547); assay: Chemoproteomic competition pulldown assay; design: endogenous in cells; host or cells: SW620, MV4-11, A549 lysates; conditions: for Kd: read-out: pKdapp (converted)
Method: (§1) To identify proteins directly bound by lipoic acid, we employed a chemoproteomic competition assay. Briefly, (R/S)-LA was immobilized on sepharose beads via an amidation reaction to form an affinity matrix (abbreviated as iL; Fig. 1a). This affinity matrix can be incubated with cell lysate to pull down potential LA or LM target proteins and identify these targets via bottom-up proteomics. In a competition assay, free LA or LM were incubated with lysate at different concentrations before pulling down and quantifying target proteins. […] (Fig. 1b, see “Methods” for details). […] The lysate buffer used in this assay contains 1 mM DTT to mimic the intracellular reductive milieu and to reduce lipoic acid and LM. […] Additional competition assays performed in lung adenocarcinoma cell A549 lysate also identified HDAC1, HDAC2, and HDAC6 as targets (Supplementary Fig. 1b). Amongst the three cell lines tested, HDACs were the only confidently identified targets across the 1500–3000 proteins quantified in these assays. […] We validated the results by analogous pulldown competition assays using two other affinity matrices prepared via the immobilization of either the HDAC inhibitor Quisinostat (iQ) and an analog of the class IIa HDAC inhibitor Bürli’s 31[14] (iC)[12]. We have previously shown that these affinity matrices specifically bind to the active sites of HDACs and have used them for HDACi selectivity profiling. Indeed, binding of (R/S)-LA and (R/S)-LM to HDAC1, HDAC2, HDAC3, HDAC6, and, to a lesser extent, HDAC8 was confirmed in these assays (Supplementary Fig. 1c, d). No binding to class IIa HDACs or the recently discovered common HDAC inhibitor off-target MBLAC2 was observed (Supplementary Fig. 1e)[12]. […] This observation might reflect electrostatic repulsion between the HDAC10 active site gate-keeper glutamic acid residues[15],[16] and the terminal carboxylic acid of LA.
(§2) To assess the degree of protein depletion from lysates by the affinity matrix, a second pulldown (PDPD) with fresh beads was performed using the unbound protein fraction from the vehicle control flow through. The beads were washed (1 × 1 mL of lysis buffer without inhibitors and only 0.4% Igepal, 2 × 2 mL of lysis buffer without inhibitors and only 0.2% Igepal), and captured proteins were denatured with 8 M urea buffer, alkylated with 55 mM chloroacetamide and digested with Trypsin according to standard procedures. The resulting peptides were desalted on a C18 filter plate (Sep-Pak® tC18 µElution Plate, Waters), vacuum dried, and stored at −20 °C until LC–MSMS measurement.
(§3) For the competition assays, relative binding was calculated based on the protein intensity ratio to the DMSO control for every single inhibitor concentration. EC50 values were derived from a four-parameter log-logistic regression with variable slope (constrain: bottom > 0). The obtained EC50 values were multiplied with a protein-dependent correction factor (cf), resulting in the apparent Kd value (Kd^app). The correction factor is determined by calculating the ratio of the protein intensity of two consecutive pulldowns of the vehicle control sample[13]. Targets of the inhibitors were annotated manually according to published procedures[12],[46],[47]. […] Additionally, the number of unique peptides and MSMS counts per condition were taken into account. Positive target binding across several independent experiments performed with different cell lysates further substantiated our confidence for a true positive drug-target binding event.

HDAC2 = HDAC2 (Homo sapiens, UniProt Q92769); assay: Chemoproteomic competition pulldown assay; design: endogenous in cells; host or cells: SW620, MV4-11, A549 lysates; conditions: for Kd: read-out: pKdapp (converted)
Method: as §1, §2, §3

MIER1 = assay: Chemoproteomic competition pulldown assay (HDAC interactor); conditions: iQ, SW620 lysate
Method: as §1, §2, §3

[1] = iL, MV4-11 lysate, log10 M -3.52288
[2] = iL, MV4-11 lysate, log10 M -4.52288
[3] = iL, MV4-11 lysate, log10 M -5.52288
[4] = iL, MV4-11 lysate, log10 M -6.52288
[5] = iQ, SW620 lysate, log10 M -3.52288
[6] = iQ, SW620 lysate, log10 M -4.52288
[7] = iQ, SW620 lysate, log10 M -5.52288
[8] = iQ, SW620 lysate, log10 M -6.52288
[9] = iL, A549 lysate, log10 M -4.52288
[10] = iL, A549 lysate, log10 M -5.52288
[11] = iL, A549 lysate, log10 M -6.52288
[12] = iL, A549 lysate, log10 M -7.52288
[13] = iL, A549 lysate, log10 M -8.52288
[14] = iL, SW620 lysate, log10 M -3.52288
[15] = iL, SW620 lysate, log10 M -4.52288
[16] = iL, SW620 lysate, log10 M -5.52288
[17] = iL, SW620 lysate, log10 M -6.52288

Sequence of HDAC1 (Q13547 whole entry): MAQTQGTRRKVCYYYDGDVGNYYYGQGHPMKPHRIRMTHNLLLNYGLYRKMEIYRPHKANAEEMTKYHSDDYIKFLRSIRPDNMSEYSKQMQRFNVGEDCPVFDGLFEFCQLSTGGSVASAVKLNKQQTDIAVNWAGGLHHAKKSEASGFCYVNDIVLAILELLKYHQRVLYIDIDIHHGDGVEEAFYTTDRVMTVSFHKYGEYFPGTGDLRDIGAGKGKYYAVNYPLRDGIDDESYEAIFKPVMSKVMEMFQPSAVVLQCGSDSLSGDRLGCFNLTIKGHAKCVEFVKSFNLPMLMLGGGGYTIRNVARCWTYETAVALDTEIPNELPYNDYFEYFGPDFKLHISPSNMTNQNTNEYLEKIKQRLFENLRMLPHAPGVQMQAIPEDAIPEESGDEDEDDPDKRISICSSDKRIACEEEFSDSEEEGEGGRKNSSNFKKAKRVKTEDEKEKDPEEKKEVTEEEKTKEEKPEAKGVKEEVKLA
Sequence of HDAC2 (Q92769 whole entry): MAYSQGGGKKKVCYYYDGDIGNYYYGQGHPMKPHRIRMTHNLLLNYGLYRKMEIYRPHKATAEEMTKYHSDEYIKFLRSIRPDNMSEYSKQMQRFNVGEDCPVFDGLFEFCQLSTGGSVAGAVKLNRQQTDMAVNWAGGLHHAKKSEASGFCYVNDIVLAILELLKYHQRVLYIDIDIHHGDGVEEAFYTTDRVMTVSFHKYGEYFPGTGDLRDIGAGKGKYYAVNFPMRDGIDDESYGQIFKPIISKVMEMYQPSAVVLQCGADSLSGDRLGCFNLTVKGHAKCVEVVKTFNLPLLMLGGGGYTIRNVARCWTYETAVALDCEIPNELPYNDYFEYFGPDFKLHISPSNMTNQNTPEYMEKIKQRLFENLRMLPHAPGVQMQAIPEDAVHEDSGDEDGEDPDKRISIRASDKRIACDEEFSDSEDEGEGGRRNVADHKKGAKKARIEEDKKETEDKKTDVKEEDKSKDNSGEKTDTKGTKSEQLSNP

relative binding vs DMSO (HDAC1; [1]): 0.1265 | relative binding vs DMSO (HDAC1; iL, MV4-11 lysate, log10 M -4): 0.2225 | relative binding vs DMSO (HDAC1; [2]): 0.3978 | relative binding vs DMSO (HDAC1; iL, MV4-11 lysate, log10 M -5): 0.749 | relative binding vs DMSO (HDAC1; [3]): 0.6057 | relative binding vs DMSO (HDAC1; iL, MV4-11 lysate, log10 M -6): 0.6823 | relative binding vs DMSO (HDAC1; [4]): 0.771 | relative binding vs DMSO (HDAC1; iL, MV4-11 lysate, log10 M -7): 0.9295 | Kd (HDAC1; iL, MV411): 10 µM | Kd (HDAC1; iL, SW620): 12.6 µM | Kd (HDAC1; iQ, SW620): 20 µM | relative binding vs DMSO (HDAC1; [5]): 0.1684 | relative binding vs DMSO (HDAC1; iQ, SW620 lysate, log10 M -4): 0.2856 | relative binding vs DMSO (HDAC1; [6]): 0.6671 | relative binding vs DMSO (HDAC1; iQ, SW620 lysate, log10 M -5): 1.011 | relative binding vs DMSO (HDAC1; [7]): 0.8661 | relative binding vs DMSO (HDAC1; iQ, SW620 lysate, log10 M -6): 1.096 | relative binding vs DMSO (HDAC1; [8]): 1.037 | relative binding vs DMSO (HDAC1; iQ, SW620 lysate, log10 M -7): 1.154 | relative binding vs DMSO (HDAC2; [1]): 0.0982 | relative binding vs DMSO (HDAC2; iL, MV4-11 lysate, log10 M -4): 0.1933 | relative binding vs DMSO (HDAC2; [2]): 0.3304 | relative binding vs DMSO (HDAC2; iL, MV4-11 lysate, log10 M -5): 0.6612 | relative binding vs DMSO (HDAC2; [3]): 0.6399 | relative binding vs DMSO (HDAC2; iL, MV4-11 lysate, log10 M -6): 0.7735 | relative binding vs DMSO (HDAC2; [4]): 0.8518 | relative binding vs DMSO (HDAC2; iL, MV4-11 lysate, log10 M -7): 0.9297 | pKd (HDAC2; iL, MV4-11 lysate, read-out: Kd app): 4.85 | Kd (HDAC2; iL, MV411): 10 µM | Kd (HDAC2; iL, SW620): 20 µM | Kd (HDAC2; iQ, SW620): 20 µM | relative binding vs DMSO (HDAC2; [5]): 0.1341 | relative binding vs DMSO (HDAC2; iQ, SW620 lysate, log10 M -4): 0.2239 | relative binding vs DMSO (HDAC2; [6]): 0.5192 | relative binding vs DMSO (HDAC2; iQ, SW620 lysate, log10 M -5): 0.7829 | relative binding vs DMSO (HDAC2; [7]): 0.822 | relative binding vs DMSO (HDAC2; iQ, SW620 lysate, log10 M -6): 0.953 | relative binding vs DMSO (HDAC2; [8]): 0.8561 | relative binding vs DMSO (HDAC2; iQ, SW620 lysate, log10 M -7): 0.9474 | relative binding vs DMSO (MIER1; log10 M -3.52288): 0.1808 | relative binding vs DMSO (MIER1; log10 M -4): 0 | relative binding vs DMSO (MIER1; log10 M -4.52288): 0.3328 | relative binding vs DMSO (MIER1; log10 M -5): 0.7626 | relative binding vs DMSO (MIER1; log10 M -5.52288): 0.9557 | relative binding vs DMSO (MIER1; log10 M -6): 1.104 | relative binding vs DMSO (MIER1; log10 M -6.52288): 0.974 | relative binding vs DMSO (MIER1; log10 M -7): 1.319
Structure (SMILES): NC(=O)CCCCC1CCSS1 (racemic) [(R/S)-LM, (R/S)-lipoamide]

Structure (SMILES): O=C(O)CCCCC1CCSS1 (racemic) [(R/S)-LA, (R/S)-lipoic acid]
Kd (HDAC1; iL, A549): 1 µM | relative binding vs DMSO (HDAC1; iL, A549 lysate, log10 M -4): 0.3621 | relative binding vs DMSO (HDAC1; [9]): 0.1828 | relative binding vs DMSO (HDAC1; iL, A549 lysate, log10 M -5): 0.2687 | relative binding vs DMSO (HDAC1; [10]): 0.5244 | relative binding vs DMSO (HDAC1; iL, A549 lysate, log10 M -6): 0.7392 | relative binding vs DMSO (HDAC1; [11]): 0.8303 | relative binding vs DMSO (HDAC1; [12]): 1.235 | relative binding vs DMSO (HDAC1; iL, A549 lysate, log10 M -8): 1.138 | relative binding vs DMSO (HDAC1; [13]): 1.054 | Kd (HDAC1; iL, SW620): 7.94 µM | relative binding vs DMSO (HDAC1; [14]): 0.1153 | relative binding vs DMSO (HDAC1; iL, SW620 lysate, log10 M -4): 0.1408 | relative binding vs DMSO (HDAC1; [15]): 0.5904 | relative binding vs DMSO (HDAC1; iL, SW620 lysate, log10 M -5): 0.9976 | relative binding vs DMSO (HDAC1; [16]): 0.8296 | relative binding vs DMSO (HDAC1; iL, SW620 lysate, log10 M -6): 0.9942 | relative binding vs DMSO (HDAC1; [17]): 0.9252 | relative binding vs DMSO (HDAC1; iL, SW620 lysate, log10 M -7): 1.135 | Kd (HDAC1; iQ, SW620): 25.1 µM | relative binding vs DMSO (HDAC1; [5]): 0.2247 | relative binding vs DMSO (HDAC1; iQ, SW620 lysate, log10 M -4): 0.2525 | relative binding vs DMSO (HDAC1; [6]): 0.6007 | relative binding vs DMSO (HDAC1; iQ, SW620 lysate, log10 M -5): 0.7446 | relative binding vs DMSO (HDAC1; [7]): 0.8354 | relative binding vs DMSO (HDAC1; iQ, SW620 lysate, log10 M -6): 0.8396 | relative binding vs DMSO (HDAC1; [8]): 0.9165 | relative binding vs DMSO (HDAC1; iQ, SW620 lysate, log10 M -7): 0.8126 | Kd (HDAC2; iL, A549): 1 µM | relative binding vs DMSO (HDAC2; iL, A549 lysate, log10 M -4): 0.3867 | relative binding vs DMSO (HDAC2; [9]): 0.2342 | relative binding vs DMSO (HDAC2; iL, A549 lysate, log10 M -5): 0.3145 | relative binding vs DMSO (HDAC2; [10]): 0.7222 | relative binding vs DMSO (HDAC2; iL, A549 lysate, log10 M -6): 0.7592 | relative binding vs DMSO (HDAC2; [11]): 1.015 | relative binding vs DMSO (HDAC2; [12]): 1.14 | relative binding vs DMSO (HDAC2; iL, A549 lysate, log10 M -8): 1.179 | relative binding vs DMSO (HDAC2; [13]): 1.15 | Kd (HDAC2; iL, SW620): 6.31 µM | relative binding vs DMSO (HDAC2; [14]): 0.08452 | relative binding vs DMSO (HDAC2; iL, SW620 lysate, log10 M -4): 0.1723 | relative binding vs DMSO (HDAC2; [15]): 0.723 | relative binding vs DMSO (HDAC2; iL, SW620 lysate, log10 M -5): 1.4202 | relative binding vs DMSO (HDAC2; [16]): 0.8654 | relative binding vs DMSO (HDAC2; iL, SW620 lysate, log10 M -6): 1.086 | relative binding vs DMSO (HDAC2; [17]): 0.8422 | relative binding vs DMSO (HDAC2; iL, SW620 lysate, log10 M -7): 1.138 | Kd (HDAC2; iQ, SW620): 31.6 µM | relative binding vs DMSO (HDAC2; [5]): 0.2247 | relative binding vs DMSO (HDAC2; iQ, SW620 lysate, log10 M -4): 0.2743 | relative binding vs DMSO (HDAC2; [6]): 0.6023 | relative binding vs DMSO (HDAC2; iQ, SW620 lysate, log10 M -5): 0.7491 | relative binding vs DMSO (HDAC2; [7]): 0.82 | relative binding vs DMSO (HDAC2; iQ, SW620 lysate, log10 M -6): 0.8431 | relative binding vs DMSO (HDAC2; [8]): 0.9314 | relative binding vs DMSO (HDAC2; iQ, SW620 lysate, log10 M -7): 0.8052 | relative binding vs DMSO (MIER1; log10 M -3.52288): 0.1271 | relative binding vs DMSO (MIER1; log10 M -4): 0.313 | relative binding vs DMSO (MIER1; log10 M -4.52288): 0.5121 | relative binding vs DMSO (MIER1; log10 M -5): 0.4151 | relative binding vs DMSO (MIER1; log10 M -5.52288): 0.7821 | relative binding vs DMSO (MIER1; log10 M -6): 0.8468 | relative binding vs DMSO (MIER1; log10 M -6.52288): 1.155 | relative binding vs DMSO (MIER1; log10 M -7): 0.8632
